Reference: ChEMBL document CHEMBL1201862, “PubChem BioAssay data set” (2004)
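Five compound concentrations were applied to cells in 96-well plates for 48 hours; endpoints were derived by simple linear interpolation of the resulting dose-response curve. Here, GI50 denotes the concentration required for 50% inhibition of growth.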 Activity calls are given as the source filed them. Cut-off read from the data, not from the text of the source: active = GI50 up to about 1.1 µM and inactive = higher.

Columns and labels:
Experiment in all cases: NCI tumour cell line growth inhibition, 48 h
SK-MEL-5 = tested on: SK-MEL-5
SK-MEL-2 = tested on: SK-MEL-2
A498 = tested on: A498
OVCAR-8 = tested on: OVCAR-8
Malme-3M = tested on: Malme-3M
SR = tested on: SR
CCRF-CEM = tested on: CCRF-CEM
MOLT-4 = tested on: MOLT-4
NCI-H226 = tested on: NCI-H226
NCI-H23 = tested on: NCI-H23
UACC-257 = tested on: UACC-257
SF-268 = tested on: SF-268
HL-60 = tested on: HL-60
HCT-15 = tested on: HCT-15
RPMI-8226 = tested on: RPMI-8226
SNB-19 = tested on: SNB-19

Row | SMILES | GI50 (SK-MEL-5) | GI50 (SK-MEL-2) | GI50 (A498) | GI50 (OVCAR-8) | GI50 (Malme-3M) | GI50 (SR) | GI50 (CCRF-CEM) | GI50 (MOLT-4) | GI50 (NCI-H226) | GI50 (NCI-H23) | GI50 (UACC-257) | GI50 (SF-268) | GI50 (HL-60) | GI50 (HCT-15) [µM] | GI50 (RPMI-8226) | GI50 (SNB-19)
1 | O=P(Nc1ccccc1)(Oc1ccccc1)N(CCCl)CCCl (stereo not given) | 39.4 µM (inactive) | 36.5 µM (inactive) | > 100 µM (inactive) | 71.9 µM (inactive) | > 100 µM (inactive) | > 100 µM (inactive) | 37.8 µM (inactive) | > 100 µM (inactive) | > 100 µM (inactive) | > 100 µM (inactive) | > 100 µM (inactive) | > 100 µM (inactive) | 14.8 µM (inactive) | > 100 | – | –
2 | C[C@]12C/C(=C/O)C(=O)C(O)=C1CC[C@@H]1C2CC[C@@]2(C)C1CC[C@@H]2O (stereo not given in full) | 20.2 µM (inactive) | 19.9 µM (inactive) | 23.6 µM (inactive) | 27.1 µM (inactive) | 20.8 µM (inactive) | – | 18.4 µM (inactive) | 26.4 µM (inactive) | 19.6 µM (inactive) | 17.4 µM (inactive) | 22.4 µM (inactive) | 24.5 µM (inactive) | 17.3 µM (inactive) | 21.5 | 17.6 µM (inactive) | 18.3 µM (inactive)
3 | O=C1CC2(CCC3=C(O2)c2ccccc2NC(=O)C3)C(=O)c2ccccc2N1 (stereo not given) | > 100 µM (inactive) | > 100 µM (inactive) | – | > 100 µM (inactive) | > 100 µM (inactive) | > 10 µM (inactive) | > 100 µM (inactive) | > 100 µM (inactive) | > 100 µM (inactive) | > 100 µM (inactive) | – | > 100 µM (inactive) | > 100 µM (inactive) | > 100 | 87.1 µM (inactive) | 98.6 µM (inactive)
4 | O=C1c2ccccc2C(=O)c2c1ccc1c2N=C(c2ccc(Br)cc2)CC(c2cccc3ccccc23)N1 (stereo not given) | > 100 µM (inactive) | > 100 µM (inactive) | – | > 100 µM (inactive) | > 100 µM (inactive) | 57.7 µM (inactive) | > 100 µM (inactive) | > 10 µM (inactive) | > 100 µM (inactive) | > 100 µM (inactive) | > 100 µM (inactive) | > 100 µM (inactive) | > 100 µM (inactive) | > 100 | 83.6 µM (inactive) | > 100 µM (inactive)
5 | COc1cc(CC2c3cc(OC)c(OC)cc3CCN2C)c(Oc2cc3c(cc2OC)-c2c(OC)c(OC)c(OC)c4c2C(C3)N(C)CC4)cc1OC (stereo not given) | 4.33 µM (inactive) | 14.6 µM (inactive) | 15.3 µM (inactive) | 14.9 µM (inactive) | 2.49 µM (inactive) | – | 16.4 µM (inactive) | 4.52 µM (inactive) | 17.2 µM (inactive) | 17.1 µM (inactive) | 6.31 µM (inactive) | 15 µM (inactive) | 9.29 µM (inactive) | 10.1 | 14 µM (inactive) | 19.4 µM (inactive)
6 | Cc1cccc(=O)c([O-])c1.Cc1cccc(=O)c([O-])c1.[Bi+3].[Cl-] | 11.3 µM (inactive) | 16.8 µM (inactive) | 16.5 µM (inactive) | 3.72 µM (inactive) | 11.9 µM (inactive) | – | 2.18 µM (inactive) | 5.12 µM (inactive) | 18.1 µM (inactive) | 10.9 µM (inactive) | 8.32 µM (inactive) | 6.61 µM (inactive) | 3 µM (inactive) | 4.84 | 3.42 µM (inactive) | 15.5 µM (inactive)
7 | NC(=O)CCCC(NCc1c2ccccc2nc2ccccc12)C(=O)O (stereo not given) | 94.6 µM (inactive) | 90.6 µM (inactive) | – | 42.7 µM (inactive) | 77.1 µM (inactive) | 25.9 µM (inactive) | 22.2 µM (inactive) | 17.9 µM (inactive) | > 100 µM (inactive) | 53.1 µM (inactive) | 85.1 µM (inactive) | 41.6 µM (inactive) | 20.5 µM (inactive) | 36.5 | 22.8 µM (inactive) | –
8 | NC(=O)c1ncn2c1NCC1OC2C(O)C1O (stereo not given) | > 100 µM (inactive) | > 100 µM (inactive) | > 100 µM (inactive) | > 100 µM (inactive) | > 100 µM (inactive) | > 100 µM (inactive) | > 100 µM (inactive) | > 100 µM (inactive) | > 100 µM (inactive) | > 100 µM (inactive) | > 100 µM (inactive) | > 100 µM (inactive) | > 100 µM (inactive) | – | – | > 100 µM (inactive)
9 | CC(C)CCCC(C)[C@H]1CCC2[C@@H]3CCC4Nc5nocc5C[C@]4(C)C3CC[C@@]21C (stereo not given in full) | 14.6 µM (inactive) | 20.7 µM (inactive) | 21.6 µM (inactive) | 12.6 µM (inactive) | 15.5 µM (inactive) | – | 7.23 µM (inactive) | 18.2 µM (inactive) | 19.9 µM (inactive) | 14.6 µM (inactive) | 19.7 µM (inactive) | 17.2 µM (inactive) | 9.02 µM (inactive) | 14.6 | 20.3 µM (inactive) | 21.2 µM (inactive)
10 | COc1ccc(OC)c(CC(C)N)c1 (stereo not given) | > 100 µM (inactive) | > 100 µM (inactive) | > 100 µM (inactive) | > 100 µM (inactive) | > 100 µM (inactive) | – | > 100 µM (inactive) | > 100 µM (inactive) | > 100 µM (inactive) | > 100 µM (inactive) | > 100 µM (inactive) | > 100 µM (inactive) | – | > 100 | > 100 µM (inactive) | > 100 µM (inactive)
